Data on 71 compounds can be found in PMC8041284, “Tunable Methacrylamides for Covalent Ligand Directed Release Chemistry” (Journal of the American Chemical Society, 2021).

By inhibition is commonly meant the change of the read-out against control, counted positive when it falls.

The test has as its target BTK (Homo sapiens, UniProt Q06187). The test is described as follows: biochemical.
Setting [1] is: read-out: BTK inhibition (%), 0.75 uM BTK, […] probe 3l, 15 min preincubation.

Like-named read-outs stand apart in the source and are kept apart here. Where a SMILES comes first, the peptide text is derived from it. The star is where a group is joined. Cbz = O=C(OCc1ccccc1)*

BTK, sequence (Q06187 402-655 limits assumed): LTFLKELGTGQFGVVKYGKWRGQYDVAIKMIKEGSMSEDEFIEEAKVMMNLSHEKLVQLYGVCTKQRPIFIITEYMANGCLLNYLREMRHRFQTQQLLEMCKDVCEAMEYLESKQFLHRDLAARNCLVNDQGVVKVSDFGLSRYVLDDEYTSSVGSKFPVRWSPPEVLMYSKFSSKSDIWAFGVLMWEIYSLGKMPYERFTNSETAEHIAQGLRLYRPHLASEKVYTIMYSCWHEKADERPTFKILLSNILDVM

`c1cn2cc(-c3ccc4cn[nH]c4c3)nc(Nc3ccc(N4CCOCC4)cc3)c2n1` [PCM-0095758]: under setting [1], the inhibition at 10 µM was 33.8%.

Consider `O=C(O)c1ccc(C=C2SC(=S)N(c3cccc(C(F)(F)F)c3)C2=O)cc1` [PCM-0095759], for which the inhibition at 10 µM under setting [1] came out at 54.1%.

With `CCCc1cc(C)[nH]c(=O)c1CNC(=O)c1cc(-c2ccc(N3CCN(C(C)C)CC3)nc2)cc2c1cnn2C(C)C` [PCM-0095761], under setting [1], the inhibition at 10 µM is -29.3%.

With `CN(CC(=O)N(Cc1ccc(C2CCCCC2)cc1)c1ccc(C(=O)O)cc1)S(=O)(=O)c1c(F)c(F)c(F)c(F)c1F` [PCM-0095763], the inhibition at 10 µM under setting [1] came out at 68.7%.

As to `O=C(O)c1ccc(N2C(=O)/C(=C/c3ccc(-c4ccc([N+](=O)[O-])cc4)o3)C=C2c2ccccc2)cc1` [PCM-0095764], the inhibition at 10 µM under setting [1] was determined as 98.1%.

Take `O=C(/C=C/c1ccccc1)NC(NC(=S)Nc1ccc(Cl)cc1)C(Cl)(Cl)Cl` (centres unmarked) [PCM-0095765]: the inhibition at 10 µM under setting [1] came to 34%.

Consider `Cc1[nH]c2ccccc2c1CCNC(=O)c1cccs1` [PCM-0095767], for which the inhibition at 10 µM under setting [1] was -6.9%.

Take `CNc1nc(-c2ccc3c(N)n[nH]c3c2)cc(N2C[C@@H](C(=O)NC3CCCCC3)CC[C@H]2C)n1` [PCM-0095768]: the inhibition at 10 µM under setting [1] was 24.1%.

For the compound `CCOc1cc(N2CCC(O)CC2)ccc1Nc1ncc2c(n1)N(C)c1ccccc1C(=O)N2C` [PCM-0095769], under setting [1], the inhibition at 10 µM was -6.2%.

For the compound `Cc1ccc(S(=O)(=O)c2ccc([N+](=O)[O-])o2)cc1` [PCM-0095771], the inhibition at 10 µM under setting [1] was -10.8%.

Regarding `CCC[C@H](Nc1nc(-c2ccc(NC(=O)NCC)c(OC)c2)ncc1C)c1cccnc1` [PCM-0095772], the inhibition at 10 µM under setting [1] was -14%.

As to `Nc1cc(F)ccc1NC(=O)/C=C/c1cnn(C/C=C/c2ccccc2)c1` [PCM-0095774], the inhibition at 10 µM under setting [1] came to 9.3%.

With `O=C(c1ccccc1)c1ccc2nc(NC(=O)c3csc(C4CCN(c5ncnc6ccsc56)CC4)n3)[nH]c2c1` [PCM-0095775], the inhibition at 10 µM under setting [1] came out at 20.1%.

For the compound `NC(=O)CCCSc1nc(N)nc(-c2c(Cl)cc3c4c(cccc24)COC3)n1` [PCM-0095776], the inhibition at 10 µM under setting [1] was -2.3%.

As to `COc1cc(Br)c(Nc2nc(-c3c(C)nc4ncccn34)cs2)c(Br)c1` [PCM-0095777], the inhibition at 10 µM (read-out: BTK inhibition (%)) came to 34%.

As to `O=C(O)c1cc2cccc([N+](=O)[O-])c2[nH]1` [PCM-0095778], the inhibition at 10 µM under setting [1] is 0.8%.

On to `C[C@@H]1COCCN1c1cc(C2(S(C)(=O)=O)CC2)nc(-c2cccc3[nH]ccc23)n1` [PCM-0095779], for which, under setting [1], the inhibition at 10 µM was -7.6%.

Turning to `CC1(C)C=C(CN2C/C(=C\c3ccc(F)cc3)C(=O)/C(=C/c3ccc(F)cc3)C2)C(C)(C)N1O` [PCM-0095780], the inhibition at 10 µM under setting [1] came out at 9.3%.

As for `O=C(c1ccc(C(=O)N2CCC(N3CCCC3)CC2)c(Nc2ccccc2)c1)N1CCC(N2CCCC2)CC1` [PCM-0095781], the inhibition at 10 µM under setting [1] was -10.8%.

For `Cc1cnc(-c2ccccc2C(C)C)nc1NCc1ccc(-n2ccnn2)cc1` [PCM-0095782], under setting [1], the inhibition at 10 µM amounted to 3.9%.

For the compound `Cc1ccccc1CN1C2=NCCN2C(=O)C2=C1CCN(Cc1ccccc1)C2` [PCM-0095783], the inhibition at 10 µM under setting [1] is -19.3%.

For the compound `c1cc(-c2cnn3cc(-c4ccc(N5CCNCC5)cc4)cnc23)c2cccnc2c1` [PCM-0095784], the inhibition at 10 µM under setting [1] was found to be 3.9%.

Take `Cn1cc(-c2cnn3c(N)c(Br)c([C@@H]4CCCNC4)nc23)cn1` [PCM-0095786]: the inhibition at 10 µM under setting [1] is -6.8%.

Turning to `C=CC(=O)Nc1cccc(Nc2nc(Nc3ccc(OCCOC)cc3)ncc2F)c1` [PCM-0095787], under setting [1], the inhibition at 10 µM came to 90.3%.

For the compound `N[C@H]1C[C@@H]1c1ccc(-c2cccc(O)c2)cc1` [PCM-0095788], the inhibition at 10 µM under setting [1] was -1.5%.

As for `Cc1cc(OCc2nnc(SC3CCCC3)n2-c2cccnc2)ccc1-c1ccc(S(C)(=O)=O)cc1` [PCM-0095789], under setting [1], the inhibition at 10 µM turned out to be 0.8%.

`Cc1ccc(NCCCc2ccccc2)c(N)c1` [PCM-0095790]: the inhibition at 10 µM under setting [1] turned out to be 17%.

For `O=C(c1cncc(Br)c1)N1CCC(N2CCCC2)CC1` [PCM-0095791], the inhibition at 10 µM under setting [1] amounted to 5.4%.

Turning to `Nc1nonc1C(=Nc1ccc(F)c(Cl)c1)NO` [PCM-0095795], the inhibition at 10 µM under setting [1] was -3.1%.

Turning to `CCN(c1cc(-c2ccc(CN3CCOCC3)cc2)cc(C(=O)NCc2c(C)cc(C)[nH]c2=O)c1C)C1CCOCC1` [PCM-0095796], the inhibition at 10 µM under setting [1] was -2.6%.

As for `C/C(=N\NC(=S)N1CCC1)c1ccccn1` [PCM-0095797], the inhibition at 10 µM under setting [1] was -13.9%.

As to `O=C(Nc1cccc(C(F)(F)F)c1)Nc1cc(S(=O)(=O)NC2CC2)ccc1-c1ccsc1` [PCM-0095800], under setting [1], the inhibition at 10 µM amounted to 27%.

Turning to `Cc1cc(C)nc(NS(=O)(=O)c2ccc(NC(=S)NC(=O)COc3ccc(Br)cc3Cl)cc2)n1` [PCM-0095801], the inhibition at 10 µM under setting [1] was 59.5%.

In the case of `C#CC[C@H](c1nc2cc(Cl)ccc2c(=O)n1Nc1ccccc1)N(CCCN)C(=O)c1cccc(Cl)c1F` [PCM-0095802], the inhibition at 10 µM under setting [1] was 52.5%.

Turning to `COc1ccccc1-c1cc(Nc2cccc(CS(N)(=O)=O)c2)ncn1` [PCM-0095804], under setting [1], the inhibition at 10 µM worked out at 2.8%.

Consider `N#Cc1c(NC(=O)c2cccc3ccccc23)sc2c1CCCC2` [PCM-0095805], for which the inhibition at 10 µM under setting [1] is 16.6%.

For `CCOC(=O)c1ccc(N2NC(=O)/C(=C/c3ccc([N+](=O)[O-])o3)C2=O)cc1` [PCM-0095807], under setting [1], the inhibition at 10 µM was 64.9%.

Consider `O=C(NNc1ccccc1)c1ccncc1` [PCM-0095808], for which the inhibition at 10 µM under setting [1] is -11.6%.

Regarding `CC(C)C[C@@H](C=O)NC(=O)[C@H](CC(C)C)NC(=O)[C@H](CC(C)C)NC(=O)OCc1ccccc1` [PCM-0095809] (Cbz-Leu-Leu-Leu-aldehyde), under setting [1], the inhibition at 10 µM stood at 5.4%.

For `Nc1ncnc2c1C(=O)N(c1ccc(C3CCC(CC(=O)O)CC3)cc1)CCO2` (centres unmarked) [PCM-0095810], the inhibition at 10 µM under setting [1] came out at 3.1%.

Take `CCOc1ccccc1-n1c(C(C)N2CCN(C(=O)COc3ccc(Cl)cc3)CC2)nc2ccccc2c1=O` (centres unmarked) [PCM-0095811]: the inhibition at 10 µM under setting [1] came to 15.4%.

As to `Cn1cc(-c2ccc3c(c2)CCN3C(=O)Cc2cccc(C(F)(F)F)c2)c2c(N)ncnc21` [PCM-0095812], the inhibition at 10 µM under setting [1] is 40%.

Consider `COc1cc(-c2cc(-c3cccc(O)c3)cnc2N)cc(OC)c1OC` [PCM-0095813], for which the inhibition at 10 µM under setting [1] came to 29.3%.

On to `N[C@H]1C[C@@H]1c1ccccc1` [PCM-0095814], for which the inhibition at 10 µM under setting [1] is -6.2%.

Regarding `CC1=C(C(=O)OC2CCCCC2)C(c2ccc([N+](=O)[O-])cc2)C2=C(CC(C)(C)CC2=O)N1` (centres unmarked) [PCM-0095815], the inhibition at 10 µM under setting [1] was determined as 46.3%.

As to `NC(=S)N/N=C/c1ncccc1N` [PCM-0095816], the inhibition at 10 µM under setting [1] is -1.5%.

For the compound `O=S(=O)(c1ccccc1)N(CC(F)(F)F)c1ccc(C(O)(C(F)(F)F)C(F)(F)F)cc1` [PCM-0095817], under setting [1], the inhibition at 10 µM was determined as 27%.

Regarding `Cn1c(=O)cc(N2CCC[C@@H](N)C2)n(Cc2cc(F)ccc2C#N)c1=O` [PCM-0095818], under setting [1], the inhibition at 10 µM worked out at 15.4%.

Consider `Cc1nc(Nc2n[nH]c3c2CN(C(=O)N[C@H](CN(C)C)c2ccccc2)C3(C)C)c2sccc2n1` [PCM-0095819], for which the inhibition at 10 µM under setting [1] was found to be 72.4%.

Consider `N#CSc1cc(SC#N)c(N)nc1N` [PCM-0095820], for which the inhibition at 10 µM under setting [1] stood at 112%.

Turning to `O=C(O)CCn1c2c(c3ccccc31)C[C@H](NS(=O)(=O)c1ccc(F)cc1)CC2` [PCM-0101878], the inhibition at 10 µM under setting [1] is -15.4%.

For the compound `Nc1ncnc2c1ncn2[C@@H]1O[C@H](CO)C[C@H]1O` [PCM-0101885], the inhibition at 10 µM under setting [1] was determined as 42%.

`C/C(=C\C(=O)OCCCCCCCCC(=O)O)C[C@@H]1OC[C@H](C[C@@H]2O[C@H]2[C@@H](C)[C@H](C)O)[C@@H](O)[C@H]1O` [PCM-0101899]: under setting [1], the inhibition at 10 µM was determined as 7%.

Regarding `COc1ccc2c(c1)/C(=C/c1cnc[nH]1)C(=O)N2` [PCM-0101915], the inhibition at 10 µM under setting [1] was determined as 47.6%.

With `Nc1ncnc2c1ncn2[C@H]1C[C@H](O)[C@@H](CO)O1` [PCM-0101923], the inhibition at 10 µM under setting [1] was determined as 15.4%.

Consider `OB1OCc2cc(F)ccc21` [PCM-0101990], for which the inhibition at 10 µM under setting [1] was -10%.

Take `O=c1c2ccccc2nc(/C=C/c2cccnc2)n1Cc1ccccc1` [PCM-0102024]: under setting [1], the inhibition at 10 µM came out at 0%.

For the compound `O=C(Nc1ccc(Cl)cc1)C1CCCN(C(=O)c2cccc(-c3ccco3)c2)C1` (centres unmarked) [PCM-0102067], the inhibition at 10 µM under setting [1] was determined as 40.9%.

Take `O=C(C[C@H]1NCCC[C@@H]1O)Cn1cnc2cc(Br)c(Cl)cc2c1=O` [PCM-0102069]: the inhibition at 10 µM under setting [1] turned out to be 0%.

In the case of `Cc1cc(Nc2cc(N)ncn2)c(=O)n2c1C(=O)NC21CCCCC1` [PCM-0203357], the inhibition at 10 µM under setting [1] amounted to 6.9%.

Regarding `CCOc1cc(C(=O)N2CCC(N3CCN(C)CC3)CC2)ccc1Nc1ncc2c(n1)N(C1CCCC1)c1ccccc1C(=O)N2C` [PCM-0213331], under setting [1], the inhibition at 10 µM is 0%.

Regarding `CCN1CCN(Cc2ccc(C(=O)Nc3ccc(C)c(Oc4ccc5c(c4)CC(=O)N5)c3)cc2C(F)(F)F)CC1` [PCM-0213332], the inhibition at 10 µM under setting [1] is 20.7%.

On to `CC(C)(C)S(=O)(=O)c1ccc2nccc(Nc3n[nH]c4ccc(F)cc34)c2c1` [PCM-0213348], for which, under setting [1], the inhibition at 10 µM was 26.2%.

Regarding `O=C(NCCO)c1cccc(-c2cc(Nc3ccc(OC(F)(F)F)cc3)ncn2)c1` [PCM-0213352], the inhibition at 10 µM under setting [1] was -24.1%.

For `CNCc1ccc(-c2cc(-c3nc(-c4ccc(S(=O)(=O)C(C)C)cc4)cnc3N)on2)cc1` [PCM-0213360], under setting [1], the inhibition at 10 µM turned out to be 17.9%.

On to `COc1cc(N2CCN(C)CC2)ccc1Nc1ncc2c(n1)N(C)c1ccccc1C(=O)N2` [PCM-0213372], for which the inhibition at 10 µM under setting [1] is 11%.

As to `Cc1nc(Nc2cnn(C3CCNCC3)c2)nc2c1N(C)C(=O)c1cc3ccccc3cc1N2C` [PCM-0213384], under setting [1], the inhibition at 10 µM turned out to be 30.3%.

Take `Cc1cnc(Nc2ccc(F)cc2Cl)nc1-c1c[nH]c(C(=O)N[C@H](CO)c2cccc(Cl)c2)c1` [PCM-0213398]: the inhibition at 10 µM under setting [1] was determined as 60%.

Take `CC(C)N1CCN(Cc2cnc(-c3cc(-c4cccc5[nH]ccc45)cc4[nH]ncc34)o2)CC1` [PCM-0213407]: the inhibition at 10 µM under setting [1] was determined as 51.7%.

For `COc1ncc(-c2cc(-c3ncc(CN4C[C@@H](C)O[C@@H](C)C4)o3)c3cn[nH]c3c2)cc1NS(C)(=O)=O` [PCM-0213408], under setting [1], the inhibition at 10 µM stood at 6.2%.

As to `CC(C)S(=O)(=O)c1ccc2nccc(Nc3ccc4scnc4c3)c2c1` [PCM-0213432], the inhibition at 10 µM under setting [1] turned out to be 26.2%.
